Measurements reported in a melting point compilation (Tetko et al.; mined from patent text by program, amines drawn as free bases though some values may be those of a salt).

Structure (SMILES)	melting point [°C]
Cc1cc(-c2cc3cc(OCCNC[C@H](O)COc4ccccc4F)ccc3o2)no1	118 to 121
O=C1NC(=S)S/C1=C\c1ccccc1Nc1cccc(C(F)(F)F)c1	234 to 236
CC1SC(=O)NN=C1c1cccc(N)c1 (stereo not drawn)	167 to 170
CCSC(=N)Nc1ccc(CCN(C)Cc2ccccc2)cc1	136 to 137
CN1CCN(C2c3ccccc3-c3[nH]c(=O)c(=O)[nH]c32)CC1 (stereo not drawn)	263 to 265
CS(=O)(=O)c1ccc(C#CCF)cc1	97 to 99
CN(C)C1(c2ccccc2)CCC(c2[nH]c3ccccc3c2CC2CCCCC2)CC1 (stereo not drawn)	195 to 198
NC(CO)c1ccc(OC(F)F)cc1 (stereo not drawn)	54 to 57
O=C(Nc1ccc(C(F)(F)F)cc1)Nc1ccc2ncccc2c1	259 to 263
CC(C)C(c1ccccc1N1CCCCC1)C(C(N)=O)c1ccc(C(=O)O)cc1 (stereo not drawn)	215 to 217
CCC1c2ccc(C#N)n2-c2cc(F)c(F)cc2N1S(=O)(=O)c1ccc(OC)c(C)c1 (stereo not drawn)	153 to 155
CCOC(=O)c1ncn(-c2nccs2)c1N	120 to 123
COC(=O)c1cccc(-c2nc(COc3ccc(CON4CC(C=O)=CN4c4ccccc4)cc3OC)c(C)o2)c1	164 to 165
CSc1nc2ccnn2c(NCc2ccco2)c1C#N	110
O=C(O)CNC(=O)Cc1ccc(Cl)cc1SC(=O)c1ccccc1	158 to 159
Cn1c(=O)c(Oc2c(F)cccc2F)cc2cnc(S(C)(=O)=O)nc21	215 to 216
COc1ccc2cc(C3=CCC4(CC3)CCN(C)CC4)ccc2c1	147 to 150
CCc1ccc(Nc2nnc(Cc3ccnc(O)c3)c3ccccc23)cc1Br	133 to 135
Cc1c(-c2ccc(Cl)c(F)c2)sc2nc(N)[nH]c(=O)c12	350 to 370
Cc1c(-c2ccc(C(C)C)cc2)oc2c(C(=O)O)cccc2c1=O	216 to 220
COC(=O)CC(=O)N1CCC(c2ccc(OC)c(OC3CCCC3)c2)CC1	78 to 79
CC(=O)N(C(=O)C(C)(C)C)C1CC(C)(C)N(OC(=O)C(C)(C)C)C(C)(C)C1	169 to 173

Structure (SMILES)	melting point [°C]
COc1cc(F)c(C(=O)Cc2c(Cl)cncc2Cl)cc1OC1CCCC1	116
CCOP(=O)(Cc1ccc(NC(=O)/C=C/c2c(C)noc2-c2ccccc2)cc1)OCC	155 to 156
CCCCc1nc(C=O)c(Br)[nH]1	113
CC(C)(O)[C@@H](N)c1cccc2ccccc12	86 to 87
COC(=O)C(=O)c1ccc(OCCOc2cc(OC)c(OC)c(OC)c2)cc1	82 to 83
NC1CN(c2c(F)c(F)c3c(=O)c(C(=O)O)cn(C4CC4)c3c2F)CC1CF (stereo not drawn)	252 to 253
CCCCOc1ccc(C(=O)N[C@@H]2CCc3cccc(N4CCN(C)CC4)c3C2)cc1	190 to 191
N#Cc1ccnc(C=Cc2ccccc2)n1	147 to 150
CC(=O)Nn1c(=S)[nH]c2cc(C(=O)O)ccc21	334 to 338
CC12CCC3C(CC4OC45CC=CCC35C)C1CC=C2Br (stereo not drawn)	146 to 147
COc1ccc(CN2CCC(c3cn(Cc4ccc(Cl)s4)c4cc(F)ccc34)CC2)cc1C(=O)O	232 to 236
OCCCc1oc(-n2cncn2)nc1-c1ccc(Cl)cc1	139 to 140
O=C(Oc1ccc2c(=O)cc(N3CCOCC3)oc2c1)c1ccccc1	204 to 206
NC(=O)c1cccc(OCCCCCCBr)c1	115 to 117
CCOC(=O)c1c2n(c3ccc(Cl)c(Cl)c3c1=O)CCS2	266 to 267
CC(=O)Nc1ccc(C2=NNC(=O)CC2)cc1[N+](=O)[O-]	223
COc1ccc([C@@H]2CCc3cc(OC)ccc3[C@@H]2Cn2ccnc2)cc1 (relative stereo)	114
CN(C(=O)c1ccc2nonc2c1)[C@H]1CC[C@H](n2ncnn2)CC1	172 to 175
COc1ccccc1CNc1ccc2cc(Nc3nnc(C(F)(F)F)o3)ccc2n1	198
COC(=O)ON=C(N)c1ccc(C(=O)OC(C)(C)C)cc1	157 to 159
COC1=C(OC)C(=O)C(CCCCCCCCCCO)=C(C)C1=O	52
Cc1c(C(F)(F)F)cnn(-c2cc(OCC3CCC3)c(Cl)cc2F)c1=O	85.3

Structure (SMILES)	melting point [°C]
CC(C)(C)OC(=O)N1CCN(c2cccc(Cl)c2C=O)CC1	100 to 103
CC(C)[C@H](NC(=O)N(C)Cc1cscn1)C(=O)N[C@@H](Cc1ccccc1)[C@@H](O)C[C@H](Cc1ccccc1)NC(=O)OCc1cccnc1	71 to 74
CS(=O)(=O)c1ccc(C(CC2CCCC2)C(=O)Nc2nc(CO)cs2)cc1 (stereo not drawn)	124 to 126
O=C1CC(Br)CCCCCCCCCN1 (stereo not drawn)	155 to 157
COCc1c(C(=O)O)ncc2[nH]c3cccc(CN4CCOCC4)c3c12	253 to 255
N=C(N)SCc1c(Cl)ccc2c1oc1c(CSC(=N)N)c(Cl)ccc12	> 220
Cc1noc(NS(=O)(=O)c2ccc(C(C)(C)C)cc2)c1C	151 to 154
CN(CCCCNC(=O)NCCCOc1cccc(CN2CCCCC2)c1)CCN(Cc1ccc(F)cc1)c1ccccn1	69
CCN(CCc1ccc(Nc2ncc3c(n2)-c2ccccc2C(c2cccc(Br)c2)C3)cc1)C(C)C (stereo not drawn)	67 to 69
CCn1c(=O)ccc2cnc(S(C)=O)nc21 (stereo not drawn)	202 to 203
COC(=O)/C=C/n1cnc2c(OC)cc(OC)cc2c1=O	224 to 226
C1=CC2=Nc3ccccc3OCN2C=C1	125 to 127
Cc1nnc(-c2ccc3occ(-c4ccc(S(C)=O)cc4)c3n2)o1 (stereo not drawn)	219 to 220
Cc1ccc(C(=O)N2CCCC(c3ccc(Cl)cc3)=N2)cc1	163 to 166
Cc1c(O)cccc1C(=O)N[C@@H](Cc1ccccc1)[C@H](O)C(=O)N1CSC(C)(C)[C@H]1C(=O)N[C@H]1C=CCCC1	193 to 195
O=[N+]([O-])c1cc(-c2ncnc(C(F)F)c2Cl)c(Cl)cc1Cl	107 to 109
CCOC(=O)c1cc(OC)c(Cc2cnc(N)nc2N)c(OC)c1	201 to 202
COc1ccc2nc(NC(=O)C(CC3CCCC3)c3ccc(S(=O)(=O)NCc4cccs4)cc3)sc2n1 (stereo not drawn)	263 to 268
CC(CC1(c2ccccc2)C=CCC=C1)OS(C)(=O)=O (stereo not drawn)	51 to 53
O=C(CCc1cccnc1)NCCCCC1CCN(P(=O)(c2ccccc2)c2ccccc2)CC1	134 to 135
CC(=O)CCCN1C(=O)c2ccccc2S1(=O)=O	90 to 93

The next lines start with the values.

melting point [°C]	Structure (SMILES)
167 to 169	Clc1ccc2c(c1)N=C(NCc1cccnc1)c1ccccc1O2
284 to 287	Cn1cc(C2=C(c3cn(C)c4ccc(O)cc34)C(=O)NC2=O)c2ccccc21
99 to 101	COC(=O)CC1=CCN(C)c2ccc(Cl)cc21
159 to 161	O=C(O)c1cccc2ccc(-c3ccccc3)nc12
86 to 87	COc1cc(OC)nc(Oc2cccc(Cl)c2N)n1
120 to 122	COc1ccc(-c2cc3c(C#N)c(OC)ccc3o2)cc1
171 to 173	COc1cc(Nc2c(C#N)cnc3cc4cc(OC)c(OC)cc4cc23)c(C)cc1Cl
82	CCCCCCc1cc2c(cc1OCCCC(=O)O)C(=O)C(C)(C)C2
183	O=C1CCC(c2ccc(O)cc2)N1 (stereo not drawn)
149 to 151	CS(=O)(=O)NS(=O)(=O)c1ccc(CCCl)cc1
107 to 110	O[C@@H](CNCCOc1ccc2oc(-c3ccon3)cc2c1)COc1ccccc1
222 to 223	Cc1cc(-c2nc3cccnn3c2-c2ccnc(NC(=O)NC3CC3)c2)ccc1F
155 to 160	COc1cccc(CCNC2(c3ccccc3Cl)C(=O)Nc3ccc(Cl)cc32)c1 (stereo not drawn)
181 to 182	CC(C)Sc1cc([Si](C)(C)C)oc1C(=O)Nc1nnn[nH]1
148 to 150	CC(C)CC(=O)Nc1cccc(-c2ccnc3c(-c4cccs4)cnn23)c1
213 to 232	O=C(c1ccccc1)N1CCc2[nH]c3cc(-c4ccccc4)ccc3c2CC1
210 to 211	CCN1C(=O)C(=CC=C2C=C(c3ccc(OC)cc3)C=C3N2c2ccccc2C3(C)C)SC1=S
112 to 114	CN(C)Cc1cc(Cc2ccccc2)c(O)c(Cc2ccccc2)c1
196 to 199	CSc1ccc(NC(=O)C2C(=O)N(c3ccccc3)N=C2C)cc1 (stereo not drawn)

melting point [°C]	Structure (SMILES)
151 to 153	CN1CCC(CNC(=O)c2ccc(-c3[nH]nc4c3C(=O)c3c(NC(=O)NN5CCOCC5)cccc3-4)s2)C1 (stereo not drawn)
77 to 82	CCOC(=O)C12CCC(=O)N1C(=O)CC2
101 to 103	NC(=O)N(O)Cc1sccc1Sc1ccc(F)cc1
160 to 163	CC1(O)CC(=O)OC(CCc2ccc(OCc3ccc(F)cc3)cc2)C1Br (stereo not drawn)
100	CCCN(CCC)C(=O)C1CSc2ccc(N)cc21 (stereo not drawn)
115 to 116	COC(=O)c1cc(OC)c(N(C)C(C)=O)c(OC)c1
92 to 93	CCCc1c(OCc2ccc(C(=O)NCCCCc3cccnc3)c(OCC)c2)ccc(C(C)=O)c1O
185 to 188	CC(C)(C)C(=O)Oc1ccc(N=Nc2ccc(OC(=O)C(C)(C)C)cc2)cc1
165 to 167	O=C(O)C1(c2ccc(Nc3nc(N4CCC(O)CC4)nc4c3CCC4)cc2)CCC1
91.5 to 92	Nc1noc(C(F)(F)F)c1-c1ccccc1
137 to 138	COCCOCCOCCOc1cc(OC)c(-c2cccs2)cc1/C=C/C(=O)c1ccc(C(=O)O)cc1
165 to 178	c1csc(-c2ccc(-c3cc4ncnc(Nc5ccc6[nH]ccc6c5)c4s3)cc2)c1
123 to 124	COC(=O)C(NC(=O)OC(C)(C)C)c1ccc(CC(=O)O)cc1 (stereo not drawn)
161 to 163	CNc1nc(Cc2ccc(OC)c(OC)c2)nc2sc(C#N)c(C)c12
129 to 131	COc1ccc2[nH]c(SCc3ncnc(N4CCOCC4)c3C)nc2c1
86 to 89	COC(=O)C1(CN=Cc2ccccc2)C=CC=CC1 (stereo not drawn)
220	Cc1ccc2[nH]c3c(c2c1)CC(C)n1c-3nc2c(c1=O)CCCC2 (stereo not drawn)
183	NCC#Cc1cnc2c(c1)N(Cc1cc(Cl)ccc1Cl)CCN2
110 to 111	O=Cc1c(Cl)cncc1Cl
